Test results reported in patent publication US9302993B2, “8-hydroxy quinoline derivatives” (PRANA BIOTECHNOLOGY LIMITED, priority 2002, dated 2016).

What was measured:
[1] = biological target: T1, hydrogen peroxide generation by Aβ in the presence of copper (Homo sapiens, UniProt P05067); assay: Fluorometric H2O2 assay (Assay 1); format: biochemical; conditions: Aβ 1-42 with Cu-Gly, DCF/HRP, 37 C 60 min; several values in one cell = repeat determinations; read-out: Peroxide IC50
T1 construct: The reaction solutions contained Aβ 1-42 at concentrations in the range of 50 nM to 1 μM
Protocol: Assay 1. Fluorometric H2O2 Assay
A fluorometric assay was used to test the ability of a test compound to inhibit hydrogen peroxide generation by Aβ in the presence of copper based on dichlorofluoroscein diacetate (DCF; Molecular Probes, Eugene Oreg.). The DCF solution (5 mM) in 100% dimethyl sulphoxide (previously purged with argon for 2 hr at 20° C.) was deacetylated in the presence of 0.25M NaOH for 30 min and neutralised at pH 7.4 to a final concentration of 1 mM. Horseradish peroxidase (HRP) stock solution was prepared to 1 μM at pH 7.4. The reactions were carried out in PBS, pH 7.4 in a 96 well plate (total volume=250 μl/well). The reaction solutions contained Aβ 1-42 at concentrations in the range of 50 nM to 1 μM, copper-glycine chelate (Cu-Gly), was prepared by adding CuCl2 to glycine in the ratio of 1:6 and added to the Aβ in the proportion 2Cu-Gly: 1Aβ), reducing agents including dopamine (5 μM) or ascorbic acid, deacetylated DCF 100 μM, and HRP, 0.1 μM. […] The reaction mixture was incubated at 37 C for 60 min. […] H2O2 concentration may be established by comparing fluorescence with the H2O2 standards. Inhibition of AB H2O2 production was assayed by including a given concentration of test compound(s) in the test wells.

Neuronal cortical cells = assay: Assay for test compound cytoxicity, MTS (Assay 3(d)); format: cell-based, mouse; conditions: BL6J×129sv, mouse, 4 days
Protocol: (§1) Media was then replaced with Neurobasal media (Invitrogen Life Technologies) and B27 supplements (Invitrogen Life Technologies). Cultures were maintained at 37° C. in 5% CO2. Prior to experimentation, the culture medium was replaced with Neurobasal media and B27 minus antioxidants (Invitrogen Life Technologies).
Cell viability is determined using the MTS assay. Culture medium is […] replaced with fresh neurobasal medium plus B27 supplements minus antioxidants. 1/10th volume MTS solution (Cell Titre 96 Aqueous One, Promega Corporation) and incubated at 37° C., 2 hrs. 200 microliter aliquots are measured with a spectrophotometer at 560 nm.
(d) Assay for Test Compound Cytoxicity
Neuronal cortical cells were cultured for five days as per Assay 2 in NB media and B27 supplement.
On day six the test compounds were added to the neuronal cell cultures in NB media and B27 supplement minus antioxidants.
Test compounds were dissolved in 100% DMSO to a concentration of 2.5 mM (10 mM if excess compound was weighed out per vial—then diluted to 2.5 mM). […] Test compounds were not added directly to cells, instead they were added to a 48 well ‘Drug Plate’ as comprised below:
(§2) The Drug Plate was incubated at 37° C. for 15 mins. 200 ul of each well was added in triplicate to the corresponding cell plate. The cell plate was incubated at 37 C, for 4 days.
On completion of the assay, 1/10 volume MTS was added per well of plate (ie 25 ul/250 ul). The plates were incubated at 37 C for 2 hrs, and then absorbance was read at 560 nm.

[2] = system: Neuronal cortical cells treated with Aβ1-42; assay: Assay for Aβ neurotoxicity and Aβ neuroprotection (Assay 3(c)); format: cell-based, mouse; conditions: 20 uM Aβ1-42, 4 days, MTS
Protocol: as §1
(c) Assay for Aβ Neurotoxicity and Aβ Neuroprotection
Neuronal cortical cells were cultured for five days as per Assay 2. On day six the neurobasal (NB) media (Invitrogen Life Technologies) and B27 supplement (Invitrogen Life Technologies) were replaced with NB media and B27 supplement (no antioxidants). On day six, test compounds were individually added to the neuronal cell cultures:
Aβ was initially dissolved in 20 mM NaOH to a concentration of 1 mM and sonicated for 5 minutes. The peptide was then diluted in H2O and 10×PBS to a final concentration of 200 uM Aβ in 1×PBS. The peptide was again sonicated for 5 minutes and then spun at 14000 rpm for 5 min and transferred to a fresh tube.
The test compounds were dissolved in 100% DMSO to a concentration of 2.5 mM (10 mM if excess compound was weighed out per vial—then diluted to 2.5 mM). […] Test compounds were not added directly to cells, instead they were added to a 48 well ‘Drug Plate’ as comprised below:
as §2
On the 4th day after treating the cells the assay is completed by adding MTS to the cells.

T1 sequence (P05067 672-713 limits assumed): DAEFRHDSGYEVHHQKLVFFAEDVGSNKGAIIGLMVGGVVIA

SMILES | IC50 [1] [nM] | Test Compound Cytoxicity 1 uM (Neuronal cortical cells) | Test Compound Cytoxicity 10 uM (Neuronal cortical cells) | Viable 10 uM (Neuronal cortical cells) | % inhibition Abeta toxicity [2] [%]
Oc1c(Cl)cc(-c2cccnc2)c2cccnc12 [compound 1057, 7-chloro-5-(pyridin-3-yl)-quinolin-8-ol] | 430 | 101.84 | 95.02 | 95.02 | 4
O=C(c1ccc2cccc(O)c2n1)N(Cc1ccccn1)Cc1ccccn1 [compound 1020] | 1300 | 85 | 83 | – | 4
CN(c1ccccn1)c1ccc2c(Cl)cc(Cl)c(O)c2n1 [compound 1056, 5,7-Dichloro-8-hydroxy-2-(methyl-pyridin-2-yl-amino)-quinoline] | 690 | 96.44 | 68.25 | 68.25 | 39
CSc1ccccc1-c1ccc2cccc(O)c2n1 [compound 1005] | 2400 | 100 | 95 | – | 1
Oc1cccc2ccc(CN(Cc3ccccn3)Cc3nccs3)nc12 [compound 1003] | 550 | 97 | 38 | – | 17
O=C(O)c1ccc2c(Cl)cc(Cl)c(O)c2n1 [compound 1039] | > 10000 | 94 | 87 | – | 9

These reach a lower IC50 [1]. Values come first.

IC50 [1] [nM] | SMILES | Test Compound Cytoxicity 1 uM (Neuronal cortical cells) | Test Compound Cytoxicity 10 uM (Neuronal cortical cells) | Viable 10 uM (Neuronal cortical cells) | % inhibition Abeta toxicity [2] [%]
270 | CC(=O)NC(=O)c1ccc2cccc(O)c2n1 [compound 1021] | 93 | 81 | – | 1
320 | Oc1cccc2ccc(CN(Cc3ccccn3)Cc3c[nH]cn3)nc12 [compound 1011] | 89 | 31 | – | 21
260 | Oc1cccc2ccc(CN(CCc3c[nH]cn3)Cc3c[nH]cn3)nc12 [compound 1008] | 86 | 28 | – | 9
